From patent US12110288B2, “MASP-2 inhibitors and methods of use” (Omeros Corporation, priority 2019, dated 2024)
Where a name gives a salt, the structure may show the parent alone.

Molecular target: T1, MASP-2 (CCP1-CCP2-SP) (Homo sapiens, UniProt O00187)
T1 construct: 15 μL of Enzyme MASP-2 (CCP1-CCP2-SP) in Assay Buffer
Assay: Enzymatic Assay for MASP-2
Format: biochemical
Conditions: fluorogenic substrate based on C2 cleavage site, room temperature, 20 mM HEPES pH 7.4
Experimental: Enzymatic Assay for MASP-2
The MASP-2 assay utilizes a fluorogenic substrate, based on the cleavage site for its natural substrate C2. The assay is run at room temperature in an assay buffer containing 20 mM HEPES, pH 7.4, 140 mM NaCl and 0.1% Tween 20. Assay parameters are adjusted such that the assay is linear with respect to time, enzyme, and substrate concentrations. Under these optimized assays conditions, IC50 values are equivalent to Ki values, except in a few cases of “tight binding” inhibitors. Cases of “tight binding” or possible “slow binding” inhibitors are handled by the methods described in Copeland R. A. (2013) Evaluation of Enzyme Inhibitors in Drug Discovery. 2nd Ed., John Wiley and Sons, Inc., Chapters 5-7.
The MASP-2 assay protocol is carried out as follows. Test compounds are serially diluted in DMSO and then 100 nL of each dilution is transferred to the assay plate(s). 10 μL of Assay Buffer is added, followed by 15 μL of Enzyme MASP-2 (CCP1-CCP2-SP) in Assay Buffer. 15 μL of Substrate in Assay Buffer is then added and mixed to start the reactions. After 20 min at room temperature, 15 μL of a stop solution (0.1 M acetic acid) is added, mixed and the plates are read on a SpectraMax i3x Microplate Reader and exported as Excel files. Each assay plate included a “no inhibitor” (DMSO Only) control, a “no enzyme” control and a reference inhibitor control. % Activity values=100*(average test comp. fluorescence−average “no enzyme” fluorescence)/(average “DMSO only” fluorescence−average “no enzyme” fluorescence). IC50 and Ki values are very reproducible, falling well within ±2-fold.

T1 sequence (O00187 445-686 limits assumed): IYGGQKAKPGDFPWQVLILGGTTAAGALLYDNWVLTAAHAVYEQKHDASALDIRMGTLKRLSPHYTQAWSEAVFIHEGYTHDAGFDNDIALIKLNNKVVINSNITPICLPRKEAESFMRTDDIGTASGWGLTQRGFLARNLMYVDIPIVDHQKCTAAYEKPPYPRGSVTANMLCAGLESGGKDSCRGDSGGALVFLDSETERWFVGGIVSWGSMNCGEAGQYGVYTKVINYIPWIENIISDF
T1 sequence (O00187 298-444 partner limits assumed): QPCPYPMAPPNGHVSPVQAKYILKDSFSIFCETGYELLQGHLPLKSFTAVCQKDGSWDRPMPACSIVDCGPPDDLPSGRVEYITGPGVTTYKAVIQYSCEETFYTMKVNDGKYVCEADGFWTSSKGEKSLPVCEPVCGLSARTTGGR

| SMILES | Ki [nM] |
| --- | --- |
| Cc1cc(Cl)cc(CNC(=O)Cn2c(=O)c(NCCc3ccccc3)cn(C)c2=O)c1O [Compound 35, trifluoroacetate] | 2500 to 10000 |
| Cc1nc(N)ccc1CNC(=O)Cn1c(-c2ccccc2)c(Cl)nc(NCCc2ccccc2)c1=O [Compound 41, N-((6-Amino-2-Methylpyridin-3-yl)Methyl)-2-(5-Chloro-2-Oxo-3-(Phenethylamino)-6-Phenylpyrazin-1(2H)-yl)Acetamide] | 500 to 2500 |
| COCCNc1ncc(-c2ccccc2)n(CC(=O)NCc2cc3cnccc3[nH]2)c1=O [Compound 120, N-((1H-Pyrrolo[3,2-c]pyridin-2-yl)methyl)-2-(3-((2-methoxyethyl)amino)-2-oxo-6-phenylpyrazin-1(2H)-yl)acetamide trifluoroacetate] | < 500 |
| COc1ccc(CCNc2ncc(-c3ccccc3)n(CC(=O)NCc3cc4cnccc4[nH]3)c2=O)cc1 [Compound 142, N-((1H-Pyrrolo[3,2-c]pyridin-2-yl)methyl)-2-(3-((4-methoxyphenethyl)amino)-2-oxo-6-phenylpyrazin-1(2H)-yl)acetamide] | < 500 |
| Cc1cc2[nH]c(CNC(=O)Cn3c(-c4ccccc4)cnc(NC4(c5ccccc5)CC4)c3=O)cc2cn1 [Compound 76, N-((6-Methyl-1H-pyrrolo[3,2-c]pyridin-2-yl)methyl)-2-(2-oxo-6-phenyl-3-((1-phenylcyclopropyl)amino)pyrazin-1(2H)-yl)acetamide trifluoroacetate] | < 500 |
| CC(C)(O)c1cccc(-c2cnc(NCCc3ccccc3)c(=O)n2CC(=O)NCc2cc3cnccc3[nH]2)c1 [Compound 92, N-((1H-Pyrrolo[3,2-c]pyridin-2-yl)methyl)-2-(6-(3-(2-hydroxypropan-2-yl)phenyl)-2-oxo-3-(phenethylamino)pyrazin-1(2H)-yl)acetamide] | < 500 |
| O=C(Cn1c(-c2ccccc2)cnc(NC2(c3ccc(F)c(F)c3)CC2)c1=O)NCc1cc2cnccc2[nH]1 [Compound 74, N-((1H-Pyrrolo[3,2-c]pyridin-2-yl)methyl)-2-(3-((1-(3,4-difluorophenyl)cyclopropyl)amino)-2-oxo-6-phenylpyrazin-1(2H)-yl)acetamide trifluoroacetate] | < 500 |
| O=C(Cn1c(-c2cnn(C3CCC3)c2)cnc(NCCc2ccccc2)c1=O)NCc1cc2cnccc2[nH]1 [Compound 110, N-((1H-Pyrrolo[3,2-c]pyridin-2-yl)methyl)-2-(6-(1-cyclobutyl-1H-pyrazol-4-yl)-2-oxo-3-(phenethylamino)pyrazin-1(2H)-yl)acetamide] | < 500 |
| O=C(Cn1c(-c2ccccc2F)cnc(NCCc2ccccc2)c1=O)NCc1cc2cnccc2[nH]1 [Compound 86, N-((1H-Pyrrolo[3,2-c]Pyridin-2-yl)Methyl)-2-(6-(2-Fluorophenyl)-2-Oxo-3-(Phenethylamino)Pyrazin-1(2H)-yl)Acetamide Trifluoroacetate] | < 500 |
| Cn1cc(-c2cnc(NCC(F)(F)c3ccccc3)c(=O)n2CC(=O)NCc2cc3cnccc3[nH]2)cn1 [Compound 123, N-((1H-Pyrrolo[3,2-c]Pyridin-2-yl)Methyl)-2-(3-((2,2-Difluoro-2-Phenylethyl)Amino)-6-(1-Methyl-1H-Pyrazol-4-yl)-2-Oxopyrazin-1(2H)-yl)Acetamide Trifluoroacetate] | < 500 |
| C=C(C)c1cccc(-c2cnc(NCCc3ccccc3)c(=O)n2CC(=O)NCc2cc3cnccc3[nH]2)c1 [Compound 91, N-((1H-Pyrrolo[3,2-c]Pyridin-2-yl)Methyl)-2-(2-Oxo-3-(Phenethylamino)-6-(3-(Prop-1-en-2-yl)Phenyl)Pyrazin-1(2H)-yl)Acetamide] | < 500 |
| O=C(Cn1c(-c2ccccc2)cnc(NCCc2cccc(F)c2)c1=O)NCc1cc2cnccc2[nH]1 [Compound 145, N-((1H-Pyrrolo[3,2-c]pyridin-2-yl)methyl)-2-(3-((3-fluorophenethyl)amino)-2-oxo-6-phenylpyrazin-1(2H)-yl)acetamide] | < 500 |

The next lines start with the values.

| Ki [nM] | SMILES |
| --- | --- |
| < 500 | C[C@H](Nc1ncc(-c2ccccc2)n(CC(=O)NCc2cc3cnccc3[nH]2)c1=O)c1ccccc1 [Compound 156, (S)-N-((1H-Pyrrolo[3,2-c]pyridin-2-yl)methyl)-2-(2-oxo-6-phenyl-3-((1-phenylethyl)amino)pyrazin-1(2H)-yl)acetamide] |
| < 500 | Cc1ccccc1-c1cnc(NCCc2ccccc2)c(=O)n1CC(=O)NCc1cc2cnccc2[nH]1 [Compound 87, N-((1H-Pyrrolo[3,2-c]pyridin-2-yl)methyl)-2-(2-oxo-3-(phenethylamino)-6-(o-tolyl)pyrazin-1(2H)-yl)acetamide trifluoroacetate] |
| < 500 | COc1ccc(CNc2ncc(-c3ccccc3)n(CC(=O)NCc3cc4cnc(C)cc4[nH]3)c2=O)cc1 [Compound 77, 2-(3-((4-Methoxybenzyl)amino)-2-oxo-6-phenylpyrazin-1(2H)-yl)-N-((6-methyl-1H-pyrrolo[3,2-c]pyridin-2-yl)methyl)acetamide trifluoroacetate] |
| < 500 | O=C(Cn1c(-c2ccc(Cl)s2)cnc(NCCc2ccccc2)c1=O)NCc1cc2cnccc2[nH]1 [Compound 89, N-((1H-Pyrrolo[3,2-c]Pyridin-2-yl)Methyl)-2-(6-(5-Chlorothiophen-2-yl)-2-Oxo-3-(Phenethylamino)Pyrazin-1(2H)-yl)Acetamide] |
| < 500 | O=C(Cn1c(-c2ccccc2)cnc(NCC2(c3ccc(F)cc3)CC2)c1=O)NCc1cc2cnccc2[nH]1 [Compound 59, N-((1H-Pyrrolo[3,2-c]pyridin-2-yl)methyl)-2-(3-(((1-(4-fluorophenyl)cyclopropyl)methyl)amino)-2-oxo-6-phenylpyrazin-1(2H)-yl)acetamide trifluoroacetate] |
| < 500 | O=C(Cn1c(-c2ccccc2)cnc(NCC(F)(F)c2ccccc2)c1=O)NCc1cc2cnccc2[nH]1 [Compound 128, N-((1H-Pyrrolo[3,2-c]pyridin-2-yl)methyl)-2-(3-((2,2-difluoro-2-phenylethyl)amino)-2-oxo-6-phenylpyrazin-1(2H)-yl)acetamide trifluoroacetate] |
| < 500 | O=C(Cn1c(-c2ccccc2)cnc(NCc2cccc(Cl)c2)c1=O)NCc1cc2cnccc2[nH]1 [Compound 75, N-((1H-Pyrrolo[3,2-c]pyridin-2-yl)methyl)-2-(3-((3-chlorobenzyl)amino)-2-oxo-6-phenylpyrazin-1(2H)-yl)acetamide trifluoroacetate] |
| < 500 | O=C(Cn1c(-c2ccccc2)cnc(N2CCC2)c1=O)NCc1cc2cnccc2[nH]1 [Compound 149, N-((1H-Pyrrolo[3,2-c]pyridin-2-yl)methyl)-2-(3-(azetidin-1-yl)-2-oxo-6-phenylpyrazin-1(2H)-yl)acetamide] |
| < 500 | O=C(Cn1c(-c2ccccc2)cnc(NCc2cccc(C(F)(F)F)c2)c1=O)NCc1cc2cnccc2[nH]1 [Compound 152, N-((1H-Pyrrolo[3,2-c]pyridin-2-yl)methyl)-2-(2-oxo-6-phenyl-3-((3-(trifluoromethyl)benzyl)amino)pyrazin-1(2H)-yl)acetamide] |
| < 500 | Cc1nc(N)ccc1CNC(=O)Cn1c(-c2cccc3cnccc23)cnc(NCCc2ccccc2)c1=O [Compound 24, N-((6-Amino-2-methylpyridin-3-yl)methyl)-2-(6-(isoquinolin-5-yl)-2-oxo-3-(phenethylamino)pyrazin-1(2H)-yl)acetamide] |
